Assay results published in patent US8969335B2, “Benzonitrile derivatives as kinase inhibitors” (MERCK PATENT GmbH, priority 2011, dated 2015).

What was measured:
[1] = system: TBK1 + IKKε (phospho-IRF3 @ Ser 386, MDA-MB-468 cells); experiment: TBK1 + IKKε cell assay: dose response inhibition of phospho-IRF3 @ Ser 386 in MDA-MB-468 cells; type: cell-based; conditions: Homo sapiens, poly(I:C) stimulation, nuclear phospho-IRF3, read-out: TBK1 + IKKε cell assay IC50
Experimental: Day 1: MDA-MB-468 cells are detached using HyQ-Tase, counted and sown into a 384-well plate with TC surface and clear bottom in a density of 10,000 cells per well in a total volume of 35 μl of complete medium. Alternatively, the cells are sown directly from frozen glass vials.
Day 2: The cells are pre-treated with inhibitor compounds for 1 h prior to poly(I:C) stimulation. After incubation for 2 h with poly(I:C), the cells are fixed in (para)formaldehyde (PFA) and permeabilised using methanol (MeOH). The cells are then blocked and incubated with an anti-pIRF3 antibody at 4° C. overnight.
Day 3: The primary antibody is washed off, an AlexaFluor488-conjugated secondary antibody is added, the cells are contrast-stained with propidium iodide, followed by image acquisition on an IMX ultra-high content reader.

[2] = target: IKKε (Homo sapiens (Human), UniProt Q14164); experiment: IKKε kinase assay (384-well flashplate assay); type: biochemical; conditions: 1 nM IKKε, 10 μM ATP, 30° C., 2 hours; read-out: IKKε enzyme assay IC50
Outline: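 Recombinant IKKε (1 nM) phosphorylates biotinylated IκBα(19-42) peptide (800 nM) with 10 μM ATP spiked with ^33P-ATP, 2 h at 30° C in MOPS buffer pH 7.5. Stopped with EDTA, captured on flashplate, radioactivity counted; nonspecific signal defined with 3 μM BX-795; IC50 derived.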

[3] = target: TANK binding kinase (TBK1) (Homo sapiens (Human), UniProt Q9UHD2); experiment: TBK1 enzyme assay (384-well flashplate kinase assay); type: biochemical; conditions: 0.6 nM TBK1, 10 μM ATP, 30° C., 120 min
Chain of TANK binding kinase (TBK1) (Q9UHD2 whole entry): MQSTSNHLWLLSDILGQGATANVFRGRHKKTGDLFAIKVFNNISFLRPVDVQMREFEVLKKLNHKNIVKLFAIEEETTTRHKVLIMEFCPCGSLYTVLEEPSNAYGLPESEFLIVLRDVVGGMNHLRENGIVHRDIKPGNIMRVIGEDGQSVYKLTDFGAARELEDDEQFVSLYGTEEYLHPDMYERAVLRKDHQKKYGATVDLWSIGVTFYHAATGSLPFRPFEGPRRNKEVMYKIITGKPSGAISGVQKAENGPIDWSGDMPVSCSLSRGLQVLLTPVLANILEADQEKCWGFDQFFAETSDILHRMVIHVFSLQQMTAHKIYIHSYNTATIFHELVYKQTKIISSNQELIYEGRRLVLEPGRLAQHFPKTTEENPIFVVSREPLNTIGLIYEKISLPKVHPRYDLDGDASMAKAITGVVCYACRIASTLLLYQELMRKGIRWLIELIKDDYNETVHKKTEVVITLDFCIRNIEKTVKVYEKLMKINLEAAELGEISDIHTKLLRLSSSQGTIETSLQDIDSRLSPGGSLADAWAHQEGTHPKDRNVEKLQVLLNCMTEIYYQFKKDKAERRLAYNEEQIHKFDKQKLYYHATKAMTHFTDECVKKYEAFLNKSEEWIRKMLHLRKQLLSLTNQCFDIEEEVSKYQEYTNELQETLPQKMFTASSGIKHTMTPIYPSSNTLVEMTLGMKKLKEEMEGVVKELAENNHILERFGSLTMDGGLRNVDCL

Chain of IKKε (Q14164 whole entry): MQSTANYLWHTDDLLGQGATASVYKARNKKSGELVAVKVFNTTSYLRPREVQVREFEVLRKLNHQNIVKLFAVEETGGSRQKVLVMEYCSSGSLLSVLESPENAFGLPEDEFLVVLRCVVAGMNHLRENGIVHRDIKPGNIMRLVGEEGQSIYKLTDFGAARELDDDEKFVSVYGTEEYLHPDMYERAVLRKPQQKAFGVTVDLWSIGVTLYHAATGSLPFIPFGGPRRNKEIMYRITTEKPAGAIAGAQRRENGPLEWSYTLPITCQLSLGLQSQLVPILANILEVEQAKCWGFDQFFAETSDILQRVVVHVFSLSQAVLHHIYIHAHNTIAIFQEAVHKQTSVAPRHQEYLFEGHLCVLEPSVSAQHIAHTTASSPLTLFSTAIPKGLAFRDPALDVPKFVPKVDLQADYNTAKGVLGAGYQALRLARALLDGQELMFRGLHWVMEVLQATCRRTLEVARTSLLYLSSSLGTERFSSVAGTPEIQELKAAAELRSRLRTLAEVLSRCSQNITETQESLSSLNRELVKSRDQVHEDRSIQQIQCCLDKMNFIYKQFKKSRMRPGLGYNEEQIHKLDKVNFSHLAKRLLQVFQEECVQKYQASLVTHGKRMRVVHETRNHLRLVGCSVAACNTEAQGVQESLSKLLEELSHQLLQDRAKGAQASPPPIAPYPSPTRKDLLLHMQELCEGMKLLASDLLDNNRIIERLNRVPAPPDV

Structure (SMILES)	IC50 [1] [nM]	IC50 [2] [nM]	IC50 [3] [nM]
Cn1ccc(Nc2cc(-c3ccc(OC4CCOCC4)c(C#N)c3)ccn2)n1 [Compound A5, 5-[2-(1-Methyl-1H-pyrazol-3-ylamino)pyridin-4-yl]-2-(tetrahydropyran-4-yloxy)benzonitrile]	2900	110	97
N#Cc1cc(-c2ccnc(Nc3ccc(N4CCOCC4)cn3)c2)ccc1OC1CCOCC1 [Compound A7, 5-[2-(5-Morpholin-4-ylpyridin-2-ylamino)pyridin-4-yl]-2-(tetrahydropyran-4-yloxy)benzonitrile]	350	15	8
N#Cc1cc(-c2ccnc(Nc3ccc(-c4cn[nH]c4)cn3)c2)ccc1OC1CCOCC1 [Compound A9, 5-{2-[5-(1H-Pyrazol-4-yl)pyridin-2-ylamino]pyridin-4-yl}-2-(tetrahydropyran-4-yloxy)benzonitrile]	3000	100	120
N#Cc1cc(-c2ccnc(Nc3ccc(N4CCOCC4)cn3)c2)ccc1OCC1CCC1 [Compound A113, 2-cyclobutylmethoxy-5-[2-(5-morpholin-4-ylpyridin-2-ylamino)pyridin-4-yl]benzonitrile]	2900	120	54
N#Cc1cc(-c2ccnc(Nc3cc(C4CCNCC4)ccn3)c2)ccc1OC1CCOCC1 [Compound A74, 5-[2-(1′,2′,3′,4′,5′,6′-hexahydro-[4,4′]bipyridinyl-2-ylamino)pyridin-4-yl]-2-(tetrahydropyran-4-yloxy)benzonitrile]	1600	1	2
N#Cc1cc(-c2ccnc(Nc3cnn(CC4CC4C#N)c3)c2)ccc1OC1CCOCC1 (stereo not drawn) [Compound A24, 5-{2-[1-(2-Cyanocyclopropylmethyl)-1H-pyrazol-4-ylamino]pyridin-4-yl}-2-(tetrahydropyran-4-yloxy)benzonitrile]	4800	89	110
N#Cc1cc(-c2ccnc(Nc3cnn(CCN4CCOCC4)c3)c2)ccc1OC1CCOCC1 [Compound A22, 5-{2-[1-(2-Morpholin-4-ylethyl)-1H-pyrazol-4-ylamino]pyridin-4-yl}-2-(tetrahydropyran-4-yloxy)benzonitrile]	9600	150	100
